Key:
[1] = target: T1, TMEM16A (acd) (Homo sapiens, UniProt Q5XXA6); test: QPatch whole-cell electrophysiology, HEK293 TMEM16A (acd); format: cell-based; conditions: supplement; 170 nM free intracellular calcium; read-out: IC50 for blocking the TMEM16A outward current, QPatch
T1 sequence (Q5XXA6 1-986): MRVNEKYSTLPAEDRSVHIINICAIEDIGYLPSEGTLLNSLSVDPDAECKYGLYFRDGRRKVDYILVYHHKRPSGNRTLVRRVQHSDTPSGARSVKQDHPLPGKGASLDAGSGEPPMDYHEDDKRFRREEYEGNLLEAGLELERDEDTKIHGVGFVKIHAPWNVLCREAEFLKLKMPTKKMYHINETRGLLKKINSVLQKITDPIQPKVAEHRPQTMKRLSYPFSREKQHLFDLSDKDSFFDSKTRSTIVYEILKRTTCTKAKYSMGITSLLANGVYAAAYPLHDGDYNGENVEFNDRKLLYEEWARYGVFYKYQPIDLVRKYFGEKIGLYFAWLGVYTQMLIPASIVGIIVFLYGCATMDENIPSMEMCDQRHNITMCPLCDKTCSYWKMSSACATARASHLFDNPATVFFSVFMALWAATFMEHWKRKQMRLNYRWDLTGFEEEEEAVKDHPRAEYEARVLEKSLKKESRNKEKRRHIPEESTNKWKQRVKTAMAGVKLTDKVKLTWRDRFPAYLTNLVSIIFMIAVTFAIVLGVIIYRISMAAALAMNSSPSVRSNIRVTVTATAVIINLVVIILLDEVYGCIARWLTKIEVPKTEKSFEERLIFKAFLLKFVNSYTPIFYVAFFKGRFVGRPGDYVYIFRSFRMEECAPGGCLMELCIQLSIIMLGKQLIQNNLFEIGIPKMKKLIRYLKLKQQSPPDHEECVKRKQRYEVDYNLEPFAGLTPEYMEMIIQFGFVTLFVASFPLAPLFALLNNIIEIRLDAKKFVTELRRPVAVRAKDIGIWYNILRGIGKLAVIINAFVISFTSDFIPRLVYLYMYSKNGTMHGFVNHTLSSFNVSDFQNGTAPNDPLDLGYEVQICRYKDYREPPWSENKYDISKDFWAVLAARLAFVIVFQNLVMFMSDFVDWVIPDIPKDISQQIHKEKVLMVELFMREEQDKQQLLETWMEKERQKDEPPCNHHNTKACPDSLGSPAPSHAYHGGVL
Text: HEK293 cells stably expressing the TMEM16A (acd) variant were purchased from SB Drug Discovery. The HEK293 TMEM16A (abc) stable cell line was from ChanTest and COLO-205 cells were purchased from ATCC. The same standard buffers and recording conditions listed below were used for QPatch studies on all three cell lines.
Recording Solutions: were made weekly as below and stored at room temperature until used. It is recommended not to add ATP to internal solution until immediately before using on the QPatch. The external buffer (in mM) was 140 NaCl, 4 KCl, 2 CaCl2, 1 MgCl2, 10 HEPES, 10 Glucose, pH7.4, while the internal buffer (in mM) was 110 CsCl, 20 TEA-Cl, 5.374 CaCl2, 1.75 MgCl2, 10 EGTA, 10 HEPES, 4 Na2ATP, pH 7.2.
Once established in whole-cell configuration, cells were clamped to a holding potential (Vhold) of 0 mV on 48 well single hole patch plate. A standardized IV protocol was used to elicit ionic current through the TMEM16A chloride channel at 20 s intervals. Steady-state voltage pulses were from −100 mV to +100 mV in +20 mV steps for a duration of 500 ms. After each pulse the voltage was returned to −100 mV for 50 ms to obtain tail currents, and then returned to the holding potential of 0 mV until the beginning of the next sweep. […] This ensures a minimum of 60 s per concentration incubation before measuring current block. Currents were acquired at 10 kHz and filtered at 2 kHz, leak subtraction and Rseries were disabled. A 1 MΩ minimum resistance was set because cells are held in an open channel state and therefore resistance is low.
A cumulative concentration response was measured where each cell is exposed to five concentrations of test article with a dilution factor of 1:5 (e.g., 0.048, 0.24, 1.2, 6, and 30 μM). Cells were recorded for ∼60 s per solution/compound addition. Initially, external solution is applied twice to allow currents to stabilize. Then vehicle (from the saline reservoir) is added twice to monitor any effect 0.3% DMSO might have on currents. This leads directly into the concentration runs by applying Concentration 1 (single addition) for 1 min. Concentration 2 is then applied for the subsequent minute, etc. Recovery/washout was monitored for a final minute with a final external solution addition.
[…] […] Each cell’s current magnitude was then normalized to itself at the initial 0.3% vehicle control period prior to compound application. This step is to account for differences in current size for each cell. Normalized responses to test article were plotted against their concentrations to reveal a concentration-inhibition plot.
A Normalized Group Hill fit was then performed on the plotted results to yield a pooled IC50 value, reconstructed from a minimum of two cells/concentration. The baseline response as well as the full response were constrained to 1 and 0, respectively.

[2] = test system: Wnt/β-catenin transcription; conditions: ref Mook et al. (2015); read-out: Mook et al. Wnt/β-catenin TopFlash (IC50); cited from earlier work
[3] = test system: Wnt/β-catenin transcription; test: Wnt/β-catenin transcription TOPFlash reporter assay; format: cell-based; conditions: Wnt TopFlash IC50 over TMEM16A eYFP IC50
[4] = target: T2, hTMEM16A (abc) (Homo sapiens, UniProt Q5XXA6, DEL476-501); test: medchem TMEM16A halide-sensitive YFP assay, 22-point dose-response; format: cell-based; design: expressed in transfected cells; conditions: supplement; iodide as permeant anion, maximum concentration 55.6; read-out: TMEM16A eYFP Assay IC50
T2 sequence (Q5XXA6 with tags, fused parts or gaps isoform Q5XXA6-5 DEL539-564): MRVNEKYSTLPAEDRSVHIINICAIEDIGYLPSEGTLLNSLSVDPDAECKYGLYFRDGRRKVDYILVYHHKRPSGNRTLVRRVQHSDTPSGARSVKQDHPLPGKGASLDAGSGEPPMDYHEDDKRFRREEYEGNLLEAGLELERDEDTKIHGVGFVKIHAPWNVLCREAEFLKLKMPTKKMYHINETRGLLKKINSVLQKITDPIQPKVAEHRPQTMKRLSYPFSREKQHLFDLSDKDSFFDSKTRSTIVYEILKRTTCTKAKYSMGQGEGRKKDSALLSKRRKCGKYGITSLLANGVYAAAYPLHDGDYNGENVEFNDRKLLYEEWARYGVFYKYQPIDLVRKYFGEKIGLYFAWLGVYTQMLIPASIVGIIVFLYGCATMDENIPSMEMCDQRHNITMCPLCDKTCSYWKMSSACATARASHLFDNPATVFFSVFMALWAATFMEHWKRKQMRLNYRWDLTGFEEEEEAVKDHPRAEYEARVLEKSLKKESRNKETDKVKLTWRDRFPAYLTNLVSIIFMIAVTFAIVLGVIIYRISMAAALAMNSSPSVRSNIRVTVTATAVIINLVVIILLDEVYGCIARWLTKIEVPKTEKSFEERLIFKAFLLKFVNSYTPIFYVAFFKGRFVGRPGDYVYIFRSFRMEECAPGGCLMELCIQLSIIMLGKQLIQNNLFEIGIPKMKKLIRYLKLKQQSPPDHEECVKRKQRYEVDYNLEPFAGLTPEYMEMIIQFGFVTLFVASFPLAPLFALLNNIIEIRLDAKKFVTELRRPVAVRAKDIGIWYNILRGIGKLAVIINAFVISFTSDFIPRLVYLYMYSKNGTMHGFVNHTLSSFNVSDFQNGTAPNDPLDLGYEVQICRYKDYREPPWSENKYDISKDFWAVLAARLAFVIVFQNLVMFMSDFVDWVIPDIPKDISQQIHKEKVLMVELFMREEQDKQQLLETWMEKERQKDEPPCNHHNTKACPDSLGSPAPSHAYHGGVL
Description: The TMEM16A HEK293T eYFP (H149Q, I153L) stable cell line for medchem support was generated by transfecting 10 μg of linearized hTMEM16A(abc) DNA constructs into HEK293T eYFP (H149Q,I153L) stable cells. The transfected cells were cultured under 200 μg/ml of hygromycin B selection for 20 days and the stable pool was single cell seeded in 96 well plate and duplicated plate were made after single cell clones were formed. YFP function assay were performed on duplicated plate and clones producing higher changes in fluorescence from the YFP assay were chosen for further expansion to form a stable cell line.
Plates were incubated for 24 h at 37°C with 5% CO2. On the assay day, medium was removed and replaced with 20 μl/well of assay buffer (Hank’s Balanced Salt Solution with 10 mM HEPES pH 7.4), 10 μl/well of 40x diluted compounds was added to assay plate and it was incubated at room temperature for 30 min, after which baseline fluorescence was read in the FLIPR instrument for 10 s. Then, 5 μl/well of a 3x trigger solution (24 mM iodide, 3 μM ionomycin in assay buffer) was added and the fluorescence kinetic trace was recorded for 2 min.

[5] = test system: human bronchial rings; test: Wire myograph bronchodilation of histamine pre-contracted human bronchial rings (Biopta)
Text: Details of bronchodilator studies shown in Figure 5H, 6 and Supplementary Figure 40 are provided below as part of the end assay report on Study CUR011 by Lee Christie (Biopta). Donors with any of the following conditions were excluded from the study: asthma, COPD, emphysema, lung cancer, cystic fibrosis, pulmonary fibrosis, pulmonary hypertension, pneumonia. Donors were also excluded if they had smoked in the past 12 months. Non-transplantable lung tissue was acquired from organ donors post mortem. Any macroscopically diseased/necrotic tissue was rejected. […] Human airway rings were set up under isometric conditions on a wire myograph in order to examine the influence of the test articles on bronchodilation. In order to assess tissue viability, the airways were challenged with carbachol (10 μM) and then isoprenaline (10 μM) to assess their constriction and relaxation responses, respectively. […] Viable airways were pre-constricted with histamine (10 μM), then exposed to one of the following cumulative concentration response curves (CCRCs): positive control, vehicle (water, volume matched to positive control), test article, vehicle (DMSO concentration matched to test articles). At the end of each CCRC, theophylline (2.2 mM) was added to induce maximal relaxation of the tissue. […] Airways were re-tensioned to 1.0 – 1.5 g if the tension had dropped below 1.0 g during the first 30 min of equilibration. (b) Airways were exposed to carbachol (bath concentration 10 μM) in order to measure their contractile responses and then isoprenaline (10 μM) in order to assess their relaxation. Airways were washed out and allowed to return to baseline. (c) Airways were pre-constricted with histamine (10 μM) before conducting a CCRC to the test article, the positive control (isoprenaline), test article vehicle or positive control vehicle.

[6] = target: T3, human CFTR (Homo sapiens, UniProt P13569); test: IonWorks Barracuda electrophysiology, CFTR chloride current in CHO cells; format: cell-based; conditions: 10 µM compound, CHO CFTR
T3 construct: host or cells: CHO
Text: HEK293 cells stably expressing the human TMEM16A (abc) variant and CHO cells expressing the human CFTR gene were from ChanTest. The IonWorks Barracuda (IWB) procedure and data provided are from outsourced studies performed at ChanTest (Charles River Discovery, Cleveland, OH, United States) who were blinded as to the identity of the test articles or compounds provided by Amgen.
For measuring compound effects on CFTR chloride currents, compounds were serially diluted in HEPES-buffered physiological saline to 2X final concentration allowing for an 8-point dose-response analysis. Test article concentrations were applied to naïve cells (n = 4, where n = the number of replicate wells/concentration) via steel needles, where each application will consist of addition of 20 μl of 2X concentrated test article solution to a final 40 μl volume in the extracellular well of the Population Patch ClampTM (PPC) planar electrode. After mixing (three times), duration of exposure to compound is at least 5 min. Final solutions contain 0.3% DMSO. […] The current is measured using a pulse pattern consisting of a voltage step to +60 mV, 100 ms duration; voltage ramp from +60 to −120 mV, 1000 ms; step to −120 mV, 200 ms; and step to 0 mV, 200 ms; from holding potential, −30 mV. Current amplitudes were measured at the voltage step to 0 mV. The recording procedure was as follows: extracellular buffer is loaded into the PPC plate wells (11 μl per well). Cell suspension was pipetted into the wells (9 μl per well) of the PPC planar electrode. After establishment of a whole-cell configuration via amphotericin patch perforation similar to that described earlier, membrane currents were recorded using the patch clamp amplifier in the IonWorks^TM Barracuda system. Two recordings (scans) were then performed, one scan before and a second scan 5 min after test article (TA) application. […] Data acquisition and analyses were performed using the IonWorks Barracuda^TM system operation software (version 2.0.2). The decrease in current amplitude after test article application was used to calculate the percent block relative to control. […] Inhibition effect was calculated as: % Inhibition = (1 – ITA/IBaseline) × 100%, where IBaseline and ITA were the currents measured in control (before addition of a test article) and in the presence of a test article, respectively.

T3 sequence (P13569 whole entry): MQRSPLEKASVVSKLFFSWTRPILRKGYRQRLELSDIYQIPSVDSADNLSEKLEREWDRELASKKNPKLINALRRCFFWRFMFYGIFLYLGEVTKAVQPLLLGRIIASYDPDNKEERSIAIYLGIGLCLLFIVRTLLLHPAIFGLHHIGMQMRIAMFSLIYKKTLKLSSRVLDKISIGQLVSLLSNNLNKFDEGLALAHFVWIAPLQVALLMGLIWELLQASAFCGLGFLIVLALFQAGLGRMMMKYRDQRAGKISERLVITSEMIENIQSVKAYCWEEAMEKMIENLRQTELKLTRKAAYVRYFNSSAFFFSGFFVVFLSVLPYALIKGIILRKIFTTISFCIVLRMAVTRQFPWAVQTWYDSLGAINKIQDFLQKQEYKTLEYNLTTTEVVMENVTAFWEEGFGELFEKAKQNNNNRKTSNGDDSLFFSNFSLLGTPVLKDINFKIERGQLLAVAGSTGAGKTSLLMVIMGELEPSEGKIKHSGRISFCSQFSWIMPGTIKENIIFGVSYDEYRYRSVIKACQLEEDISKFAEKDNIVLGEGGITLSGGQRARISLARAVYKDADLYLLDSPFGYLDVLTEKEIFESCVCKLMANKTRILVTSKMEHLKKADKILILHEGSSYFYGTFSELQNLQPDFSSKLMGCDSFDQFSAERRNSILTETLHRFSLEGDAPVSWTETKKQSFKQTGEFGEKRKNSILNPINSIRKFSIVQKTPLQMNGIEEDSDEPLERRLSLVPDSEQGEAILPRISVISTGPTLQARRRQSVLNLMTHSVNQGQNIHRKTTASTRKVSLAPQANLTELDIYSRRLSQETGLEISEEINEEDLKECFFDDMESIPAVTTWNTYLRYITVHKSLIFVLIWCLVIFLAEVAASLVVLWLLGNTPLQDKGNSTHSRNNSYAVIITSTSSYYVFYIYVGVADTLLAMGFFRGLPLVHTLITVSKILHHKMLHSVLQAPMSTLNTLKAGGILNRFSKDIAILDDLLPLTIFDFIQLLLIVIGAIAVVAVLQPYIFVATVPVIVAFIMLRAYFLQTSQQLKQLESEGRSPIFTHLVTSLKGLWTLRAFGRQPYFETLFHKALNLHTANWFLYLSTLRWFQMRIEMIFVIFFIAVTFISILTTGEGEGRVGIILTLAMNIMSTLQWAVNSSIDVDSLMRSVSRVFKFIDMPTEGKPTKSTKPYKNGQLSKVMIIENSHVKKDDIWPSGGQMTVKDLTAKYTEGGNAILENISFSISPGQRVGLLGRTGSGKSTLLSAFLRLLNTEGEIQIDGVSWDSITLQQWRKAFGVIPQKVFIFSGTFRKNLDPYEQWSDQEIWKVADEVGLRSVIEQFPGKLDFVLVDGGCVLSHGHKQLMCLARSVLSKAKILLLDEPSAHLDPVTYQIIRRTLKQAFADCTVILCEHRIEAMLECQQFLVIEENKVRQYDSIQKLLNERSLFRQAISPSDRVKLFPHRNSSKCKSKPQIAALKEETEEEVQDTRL

| Molecule | IC50 [2] | IC50 [4] | also measured |
| --- | --- | --- | --- |
| O=C(Nc1ccccc1C(=O)Nc1nnc(C(F)(F)F)s1)c1ccccc1Cl [CID# 2806957] | – | – | IC50 [1]: 670 nM |
| O=C(Nc1ccccc1)c1cc(Cl)ccc1O [Cpd 6] | 11800 nM | 1040 nM | IC50 Ratio, Wnt/TMEM16A [3]: 11.36 |
| CC(=O)c1ccc(NC(=O)c2cc(Cl)ccc2O)cc1 [Cpd 7] | 6420 nM | 2620 nM | IC50 Ratio, Wnt/TMEM16A [3]: 2.45 |
| CS(=O)(=O)c1ccc(NC(=O)c2cc(Cl)ccc2O)c(Cl)c1 [Cpd 8] | 7660 nM | 4720 nM | IC50 Ratio, Wnt/TMEM16A [3]: 1.62 |
| O=C(Nc1c(Cl)cccc1Cl)c1cc(Cl)ccc1O [Cpd 15] | > 12000 nM | – | – |
| O=C(Nc1c(F)cccc1F)c1cc(Cl)ccc1O [Cpd 18] | > 12000 nM | 13400 nM | – |
| CC(C)(C)NCC(O)c1ccc(O)c(CO)c1 (centres unmarked) [Salbutamol, salbutamol] | – | – | EC50 ([5]; Homo sapiens, 10 μM histamine, read-out: EC50 bronchodilating histamine precontracted human airways): 119 nM; time to open airways ([5]; summary): < 7 min |
| NCCNCCNC(=O)c1cc2ccccc2cc1O [compound 111758] | – | 91 ± 28 nM | – |
| CC1(C)C(O)C1C#Cc1ccccc1 (centres unmarked) [compound 598689] | – | 466 ± 101 nM | – |
| CCCn1c(SCC(=O)NCC(F)(F)F)nc2ccccc2c1=O [compound 2100101] | – | 3330 nM | – |
| Cc1ccc(-c2nnn(CC(=O)N(c3cccc(C(F)(F)F)c3)C(C(=O)NC(C)(C)C)c3cccs3)n2)cc1 (centres unmarked) [compound 3179204] | – | 334 nM | – |
| CFTRinh-172 | – | – | effect on CFTR chloride current [6]: fully inhibited |
